Measurements published in PMC7247425, “MRP1-Collateral Sensitizers as a Novel Therapeutic Approach in Resistant Cancer Therapy: An In Vitro and In Vivo Study in Lung Resistant Tumor” (International Journal of Molecular Sciences, 2020).

Key:
[1] = Hemato-chemical parameters and tolerability in treated mice; assay type: in vivo; conditions: blood after euthanasia day 21; i.p. treatment day 1, 7, 14; means ± SD, n = 8
Experimental: (§1) Here, 1 × 10^6 A549/DX cells were mixed with 100 μl Matrigel implanted in 6-week-old female nu/nu BALB/C mice (Charles River Laboratories Italia, Calco, Italy), housed (5 per cage) under 12 h light/dark cycle, with food and drinking provided ad libitum. Tumor growth was measured daily by caliper, according to the equation (LxW2)/2, where L = tumor length and W = tumor width. When the tumor reached the volume of 50 mm^3, mice (n = 8/group) were randomized and treated as reported in the following groups, treated on day 1, 7, and 14 after randomization: (1) vehicle group (ctrl), treated intraperitoneally (i.p.) with 100 µL saline solution; (2) cis-Pt group, treated i.p. with 50 mg/kg cis-Pt, dissolved in 100 µL water/10% DMSO solution, according to Kopecka et al., 2015 [53]; (3) F397 group, treated i.p. with 750 nmoles of the compound, dissolved in 100 µL water/10% DMSO solution, corresponding to the maximum tolerated dose (not shown and Table 2); (4) F421 group, treated i.p. with 750 nmoles of the compound, dissolved in 100 µL water/10% DMSO solution i.p, corresponding to the maximum tolerated dose (not shown and Table 2); (5) cis-Pt/F397 group, treated i.p. with 50 mg/kg Cis-Pt and 750 nmoles of F397; (6) cis-Pt/F421 group, treated i.p. with 50 mg/kg cis-Pt and 750 nmoles of F421; (7) MK571 group, treated i.p. with 3 mg/kg MK571 dissolved in 100 µL water/10% DMSO solution, according to Jones et al., 1989 [56]; (8) MK571/F397 group, treated i.p. with 3 mg/kg MK571 and 750 nmoles of F397; (9) MK571/F421 group, treated i.p. with 3 mg/kg MK571 and 750 nmoles of F421. Tumor volumes were monitored daily. Animals were euthanized at day 21 after randomization with zolazepam (0.2 mL/kg) and xylazine (16 mg/kg). Lactate dehydrogenase (LDH), aspartate aminotransferase (AST), alanine aminotransferase (ALT), alkaline phosphatase (AP), creatinine, and creatine phosphokinase (CPK) were measured on blood samples collected immediately after euthanasia, using commercially available kits from Beckman Coulter Inc. (Beckman Coulter, Miami, FL, USA).

A549/DX cells [2] = experiment: In vivo tumor growth of A549/DX xenografts; parameters: species or system nu/nu BALB/C mice; conditions: A549/DX xenografts, 50 mg/kg cis-Pt i.p.
Experimental: In order to translate in vivo the capability of F397, F400, and F421 to act as “sensitizers”, A549/DX cells were implanted in immune-deficient BALB/C mice, and once the tumor reached the volume of 50 mm^3, the mice were randomized and treated […] with the vehicle (saline solution) and/or cis-Pt.
as §1

A549/DX cells [3] = experiment: Cell viability (MTT) of A549/DX cells at 72 h, alone and in co-administration; assay type: cell-based, human
Experimental: Indeed, the accurate detection of cell viability in A549 cells was critical in calculating the SR in a reliable manner.
First, we wondered if there was a correlation between the inhibition of the MRP1 protein and the CS properties of the compounds.
(§2) The determination of cell growth was performed using an MTT assay at 24 or 72 h. On day 1, 10,000 cells/well were seeded into 96-well plates in a volume of 100 μL. […] In all the experiments, the various drug solvents (ethanol, DMSO) were added in each control to evaluate a possible solvent cytotoxicity. After the established incubation time with drugs, 10 μL MTT (0.5 mg/mL) was added to each well, and after 3 h incubation at 37°C, the supernatant was removed. The formazan crystals were solubilized using 100 μL of DMSO and the absorbance values at 570 and 630 nm were determined on the microplate reader Victor 3 from PerkinElmer Life Sciences. The absorbance of the untreated cells was considered equal to 100% cell viability; the viability of cells measured in each experimental condition was expressed as a percentage of viable cells in the considered condition vs. the viability of the untreated cells.

MDCK-MRP1 cells = experiment: Antiproliferative MTT assay in MDCK-wt and MDCK-MRP1 cells, selectivity ratio; assay type: cell-based, canine; conditions: EC50 of MDCK cells/EC50 of MDCK-MRP1 cells
Experimental: Within the search for novel CS agents acting on MRP1 proteins, the compounds selected among the different series of sigma-2 ligands were investigated for their activity at MRP1, paralleled with their cytotoxicity in the parental Madin–Darby canine kidney (MDCK-wt) cells and in the MDR-derived cells (MDCK-MRP1) for the determination of their SR (EC50 parental cells/EC50 MDR cells). The activity at the MRP1 pump was determined measuring the transport inhibition of the pro-fluorescent probe Calcein-AM, an MRP1 substrate, in the MRP1-overexpressing cell line (MDCK-MRP1) by the in vitro biological assay usually performed to study an MRP1 interaction. […] The SR was measured as the EC50 of the MDCK cells/EC50 of the MDCK-MRP1 cells.
as §2

MRP1 = MRP1 (Homo sapiens, UniProt P33527); experiment: Calcein-AM transport inhibition in MDCK-MRP1 cells (MRP1 activity)
MRP1, sequence (P33527 whole entry): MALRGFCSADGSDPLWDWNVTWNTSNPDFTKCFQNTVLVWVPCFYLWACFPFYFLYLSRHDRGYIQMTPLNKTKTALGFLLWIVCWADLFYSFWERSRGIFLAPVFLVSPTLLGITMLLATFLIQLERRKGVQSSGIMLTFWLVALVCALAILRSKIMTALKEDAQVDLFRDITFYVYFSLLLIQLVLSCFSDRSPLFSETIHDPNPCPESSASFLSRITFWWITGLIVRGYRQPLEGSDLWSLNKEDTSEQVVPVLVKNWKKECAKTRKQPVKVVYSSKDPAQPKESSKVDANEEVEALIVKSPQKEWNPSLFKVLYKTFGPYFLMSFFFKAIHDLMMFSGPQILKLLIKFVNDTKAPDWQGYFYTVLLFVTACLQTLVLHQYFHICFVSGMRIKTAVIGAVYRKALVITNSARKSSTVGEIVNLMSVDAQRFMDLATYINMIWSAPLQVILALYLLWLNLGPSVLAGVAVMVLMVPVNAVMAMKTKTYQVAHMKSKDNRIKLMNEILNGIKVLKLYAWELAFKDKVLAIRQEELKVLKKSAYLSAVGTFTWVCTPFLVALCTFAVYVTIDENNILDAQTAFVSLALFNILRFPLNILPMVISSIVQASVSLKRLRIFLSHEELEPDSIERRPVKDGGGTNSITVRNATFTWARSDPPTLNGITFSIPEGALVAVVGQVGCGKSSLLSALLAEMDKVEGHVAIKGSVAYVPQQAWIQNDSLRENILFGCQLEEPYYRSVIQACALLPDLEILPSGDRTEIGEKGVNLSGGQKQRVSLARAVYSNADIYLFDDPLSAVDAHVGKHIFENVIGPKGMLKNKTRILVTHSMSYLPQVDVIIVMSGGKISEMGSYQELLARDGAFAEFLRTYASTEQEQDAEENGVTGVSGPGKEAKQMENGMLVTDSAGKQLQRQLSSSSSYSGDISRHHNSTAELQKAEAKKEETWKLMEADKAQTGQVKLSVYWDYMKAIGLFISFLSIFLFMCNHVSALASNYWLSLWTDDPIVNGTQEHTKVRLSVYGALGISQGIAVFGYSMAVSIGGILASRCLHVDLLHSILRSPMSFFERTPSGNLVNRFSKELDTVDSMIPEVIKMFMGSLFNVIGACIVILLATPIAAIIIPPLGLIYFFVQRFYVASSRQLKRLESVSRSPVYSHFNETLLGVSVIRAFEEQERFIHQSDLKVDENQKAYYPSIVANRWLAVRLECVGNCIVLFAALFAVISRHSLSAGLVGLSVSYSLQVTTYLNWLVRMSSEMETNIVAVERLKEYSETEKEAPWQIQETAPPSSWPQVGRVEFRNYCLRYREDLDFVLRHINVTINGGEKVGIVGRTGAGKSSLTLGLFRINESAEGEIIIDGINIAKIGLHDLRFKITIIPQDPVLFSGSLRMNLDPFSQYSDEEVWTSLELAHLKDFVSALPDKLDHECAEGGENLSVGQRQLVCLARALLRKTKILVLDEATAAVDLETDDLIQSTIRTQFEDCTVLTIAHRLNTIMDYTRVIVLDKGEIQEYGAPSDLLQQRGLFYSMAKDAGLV
Experimental: Each cell line (30,000 cells per well) was seeded into a black CulturePlate 96/well plate with a 100 μL medium and allowed to become confluent overnight. […] In these experimental conditions, the Calcein cell accumulation in the absence and in the presence of the tested compounds was evaluated and the fluorescence basal level was estimated with the untreated cells. In treated wells, the increase in fluorescence with respect to the basal level was measured. EC50 values were determined by fitting the fluorescence increase percentage vs. log(dose).

Molecule `N.N.[Cl][Pt][Cl]` [Cis-Pt, cis-platinum, reference compound] has an ALT [1] of 41 ± 9 U/L, an AP [1] of 129 ± 14 U/L and an AST [1] of 91 ± 34 U/L. The CPK [1] was 259 ± 98 U/L, the LDH [1] was 7092 ± 542 U/L and the “Tumor growth, cis-Pt alone” value (A549/DX cells [2]) was “resistance of A549/DX against the standard chemotherapy regimen”. For the same molecule, the “Sensitivity to cis-Pt co-administrated with MK571” value (A549/DX cells [3]; cis-Pt 25 μM + MK571 25 μM) was “restored when co-administrated with MK571”.

Work on `CN(C)C(=O)CCSC(SCCC(=O)O)c1cccc(/C=C/c2ccc3ccc(Cl)cc3n2)c1` (stereo not drawn) [MK571, reference compound] yielded an ALT [1] of 41 ± 7 U/L, an AP [1] of 117 ± 33 U/L and an AST [1] of 101 ± 33 U/L. For the same molecule, the CPK [1] was 334 ± 81 U/L, the LDH [1] was 7141 ± 927 U/L and the “Cytotoxicity / antiproliferative effect alone” value (A549/DX cells [3]; 25 μM alone) was “not cytotoxic”.

In the case of `Fc1ccc(-n2cc(CCCCN3CCC4(CC3)OCc3ccccc34)c3ccccc32)cc1` [Siramesine, siramesine, reference compound], the “SR (selectivity ratio)” value (MDCK-MRP1 cells) is reported as 0.56 and the EC50 (MRP1) is reported as 23.2 ± 4.5 µM.
